Test results reported in ChEMBL document CHEMBL4311992, “Discovery of 3-(((9H-purin-6-yl)amino)methyl)-4,6-dimethylpyridin-2(1H)-one derivatives as novel tubulin polymerization inhibitors for treatment of cancer” (Eur J Med Chem, 2019).

How the values were obtained:
[1] = molecular target: Activated CDC42 kinase 1 (Homo sapiens) (UniProt Q07912); assay: Inhibition of recombinant human ACK1 (1 to 389 residues) assessed as residual activity at 10 uM using EFPIYDFLPAKKK as substrate measured after 40 mins in presence of [gamma33P]ATP by scintillation counting method
Activated CDC42 kinase 1 (Homo sapiens), sequence (Q07912 whole entry, looked up, the tested form may be a part): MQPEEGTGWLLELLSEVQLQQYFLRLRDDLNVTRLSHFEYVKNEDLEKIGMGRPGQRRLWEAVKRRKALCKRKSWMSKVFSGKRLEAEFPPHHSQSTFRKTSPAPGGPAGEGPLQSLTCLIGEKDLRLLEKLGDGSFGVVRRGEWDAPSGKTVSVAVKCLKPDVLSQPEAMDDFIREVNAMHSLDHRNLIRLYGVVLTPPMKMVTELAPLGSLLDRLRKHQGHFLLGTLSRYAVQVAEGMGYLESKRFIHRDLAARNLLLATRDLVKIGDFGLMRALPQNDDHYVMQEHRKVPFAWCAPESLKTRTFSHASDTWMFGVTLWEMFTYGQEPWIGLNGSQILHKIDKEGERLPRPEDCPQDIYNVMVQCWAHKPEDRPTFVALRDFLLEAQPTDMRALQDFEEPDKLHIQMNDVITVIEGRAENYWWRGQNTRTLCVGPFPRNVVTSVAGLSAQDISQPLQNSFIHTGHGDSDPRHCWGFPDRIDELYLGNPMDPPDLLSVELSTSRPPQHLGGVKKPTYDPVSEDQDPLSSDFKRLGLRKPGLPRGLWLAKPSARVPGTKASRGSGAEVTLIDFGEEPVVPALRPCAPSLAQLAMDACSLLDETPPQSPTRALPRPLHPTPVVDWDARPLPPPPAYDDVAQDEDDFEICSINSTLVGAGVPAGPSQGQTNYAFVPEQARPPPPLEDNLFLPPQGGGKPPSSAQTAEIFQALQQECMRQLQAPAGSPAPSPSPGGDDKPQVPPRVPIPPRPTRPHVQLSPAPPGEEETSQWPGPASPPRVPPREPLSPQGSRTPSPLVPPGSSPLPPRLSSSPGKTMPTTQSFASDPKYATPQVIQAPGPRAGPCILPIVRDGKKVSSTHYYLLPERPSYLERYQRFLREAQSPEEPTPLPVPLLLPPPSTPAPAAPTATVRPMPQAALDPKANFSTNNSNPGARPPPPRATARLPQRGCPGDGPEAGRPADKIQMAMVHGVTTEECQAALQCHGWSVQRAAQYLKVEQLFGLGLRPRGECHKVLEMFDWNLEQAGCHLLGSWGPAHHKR

[2] = molecular target: Cyclin-dependent kinase-like 4 (Homo sapiens) (UniProt Q5MAI5); assay: Inhibition of human CDKL4 assessed as residual activity at 10 uM by radiometric method
[3] = molecular target: Serine/threonine-protein kinase 3 (Homo sapiens) (UniProt Q13188); assay: Inhibition of recombinant full-length human MST2 (2 to end residues) assessed as residual activity at 10 uM using myelin basic protein as substrate measured after 40 mins in presence of [gamma33P]ATP by scintillation counting method
[4] = molecular target: Protein kinase C theta type (Homo sapiens) (UniProt Q04759); assay: Inhibition of recombinant full-length human PKCtheta assessed as residual activity at 10 uM using histone H1as substrate measured after 40 mins in presence of [gamma33P]ATP by scintillation counting method
[5] = molecular target: Mitogen-activated protein kinase 12 (Homo sapiens) (UniProt P53778); assay: Inhibition of recombinant full-length human SAPK3 assessed as residual activity at 10 uM using myelin basic protein as substrate measured after 40 mins in presence of [gamma33P]ATP by scintillation counting method
[6] = molecular target: Homeodomain-interacting protein kinase 4 (Homo sapiens) (UniProt Q8NE63); assay: Inhibition of recombinant full-length human HIPK4 assessed as residual activity at 10 uM using RRRFRPASPLRGPPK as substrate measured after 40 mins in presence of [gamma33P]ATP by scintillation counting method
[7] = molecular target: Ephrin type-A receptor 7 (Homo sapiens) (UniProt Q15375); assay: Inhibition of recombinant human EphA7 (613 to 909 residues) assessed as residual activity at 10 uM using KTFCGTPEYLAPEVRREPRILSEEEQEMFRDFDYIADWC as substrate measured after 40 mins in presence of [gamma33P]ATP by scintillation counting method
Ephrin type-A receptor 7 (Homo sapiens), sequence (Q15375 28-998 limits assumed): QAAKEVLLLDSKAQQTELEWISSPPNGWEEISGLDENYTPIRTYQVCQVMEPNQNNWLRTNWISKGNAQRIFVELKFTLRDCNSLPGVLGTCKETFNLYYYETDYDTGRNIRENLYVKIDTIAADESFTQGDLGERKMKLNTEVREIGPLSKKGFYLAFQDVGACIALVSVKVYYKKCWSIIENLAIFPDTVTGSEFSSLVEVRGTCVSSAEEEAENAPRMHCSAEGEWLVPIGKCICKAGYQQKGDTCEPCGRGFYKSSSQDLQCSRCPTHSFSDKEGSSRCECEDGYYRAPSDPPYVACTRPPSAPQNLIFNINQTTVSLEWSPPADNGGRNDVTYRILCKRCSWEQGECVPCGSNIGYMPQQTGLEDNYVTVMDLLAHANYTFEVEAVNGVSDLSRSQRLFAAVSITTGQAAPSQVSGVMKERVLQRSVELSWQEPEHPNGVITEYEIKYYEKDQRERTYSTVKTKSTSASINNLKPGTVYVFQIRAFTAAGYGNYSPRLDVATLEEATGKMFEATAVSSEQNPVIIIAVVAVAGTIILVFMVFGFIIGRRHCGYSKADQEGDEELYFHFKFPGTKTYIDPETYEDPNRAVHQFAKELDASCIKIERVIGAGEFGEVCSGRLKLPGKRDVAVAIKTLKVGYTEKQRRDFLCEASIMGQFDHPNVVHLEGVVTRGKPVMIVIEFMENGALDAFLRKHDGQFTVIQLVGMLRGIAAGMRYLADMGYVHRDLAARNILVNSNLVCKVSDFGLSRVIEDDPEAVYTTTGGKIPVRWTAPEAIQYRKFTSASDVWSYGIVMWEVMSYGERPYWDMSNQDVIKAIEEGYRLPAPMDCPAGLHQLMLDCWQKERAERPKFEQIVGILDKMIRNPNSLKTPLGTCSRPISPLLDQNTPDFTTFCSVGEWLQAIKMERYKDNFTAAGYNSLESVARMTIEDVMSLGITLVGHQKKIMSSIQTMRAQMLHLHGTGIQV

[8] = molecular target: Serine/threonine-protein kinase/endoribonuclease IRE1 (Homo sapiens) (UniProt O75460); assay: Inhibition of recombinant human IRE1 (465 to end residues) assessed as residual activity at 10 uM using myelin basic protein as substrate measured after 40 mins in presence of [gamma33P]ATP by scintillation counting method
[9] = molecular target: Serine/threonine-protein kinase tousled-like 2 (Homo sapiens) (UniProt Q86UE8); assay: Inhibition of human TLK2 (387 to end residues) using casein as substrate measured after 40 mins in presence of [gamma33P]ATP by scintillation counting method; set-up: scale not given: the % may be the effect or the level left
[10] = molecular target: Ribosomal protein S6 kinase alpha-3 (Homo sapiens) (UniProt P51812); assay: Inhibition of human Rsk2 (2 to end residues) using KKKNRTLSVA as substrate measured after 40 mins in presence of [gamma33P]ATP by scintillation counting method; set-up: scale not given: the % may be the effect or the level left
[11] = molecular target: Calcium/calmodulin-dependent protein kinase type 1G (Homo sapiens) (UniProt Q96NX5); assay: Inhibition of human CaMK1gamma; set-up: scale not given: the % may be the effect or the level left
[12] = molecular target: Receptor-interacting serine/threonine-protein kinase 1 (Homo sapiens) (UniProt Q13546); assay: Inhibition of human RIPK1 (8 to 322 residues) using myelin basic protein as substrate measured after 120 mins in presence of [gamma33P]ATP by scintillation counting method; set-up: scale not given: the % may be the effect or the level left
Receptor-interacting serine/threonine-protein kinase 1 (Homo sapiens), sequence (Q13546 whole entry, the tested form may be a part): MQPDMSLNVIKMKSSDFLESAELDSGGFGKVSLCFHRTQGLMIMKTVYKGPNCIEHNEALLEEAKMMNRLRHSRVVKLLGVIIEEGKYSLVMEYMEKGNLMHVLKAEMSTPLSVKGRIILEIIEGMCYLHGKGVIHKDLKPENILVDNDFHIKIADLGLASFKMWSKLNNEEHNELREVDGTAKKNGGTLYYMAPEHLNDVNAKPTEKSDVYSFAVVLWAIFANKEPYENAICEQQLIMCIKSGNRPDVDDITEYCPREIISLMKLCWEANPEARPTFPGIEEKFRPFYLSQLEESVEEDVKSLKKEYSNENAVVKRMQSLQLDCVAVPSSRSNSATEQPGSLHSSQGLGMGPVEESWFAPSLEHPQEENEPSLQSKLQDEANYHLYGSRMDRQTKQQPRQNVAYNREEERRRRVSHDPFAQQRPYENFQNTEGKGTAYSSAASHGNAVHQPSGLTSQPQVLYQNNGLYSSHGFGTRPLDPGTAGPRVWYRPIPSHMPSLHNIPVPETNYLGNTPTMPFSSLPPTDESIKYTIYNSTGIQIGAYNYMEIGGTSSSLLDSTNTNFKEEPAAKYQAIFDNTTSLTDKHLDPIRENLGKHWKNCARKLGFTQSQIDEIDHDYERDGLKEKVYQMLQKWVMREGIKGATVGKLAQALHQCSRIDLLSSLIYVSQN

[13] = molecular target: Proto-oncogene tyrosine-protein kinase Src (Homo sapiens) (UniProt P12931); assay: Inhibition of human Src (1 to 530 residues) using GGEEEEYFELVKKKK as substrate measured after 40 mins in presence of [gamma33P]ATP by scintillation counting method; set-up: scale not given: the % may be the effect or the level left
[14] = molecular target: Serine/threonine-protein kinase Nek9 (Homo sapiens) (UniProt Q8TD19); assay: Inhibition of recombinant human NEK9 (1 to 324 residues) assessed as residual activity at 10 uM using myelin basic protein as substrate measured after 40 mins in presence of [gamma33P]ATP by scintillation counting method
[15] = molecular target: Activin receptor type-1-like (Homo sapiens) (UniProt P37023); assay: Inhibition of recombinant human ALK1 (142 to end residues) assessed as residual activity at 10 uM using casein as substrate measured after 40 mins in presence of [gamma33P]ATP by scintillation counting method
[16] = tested on: Proto-oncogene tyrosine-protein kinase Src (Homo sapiens), P12931 [T341M]; assay: Inhibition of recombinant full-length human Src T341M mutant assessed as residual activity at 10 uM using GGEEEEYFELVKKKK as substrate measured after 40 mins in presence of [gamma33P]ATP by scintillation counting method
Homo sapiens = species on record: Homo sapiens; assay: Inhibition of recombinant full-length human PI3K p120gamma R459Q mutant assessed as residual activity at 10 uM using phosphatidylinositol-4, 5-bisphosphate as substrate measured after 40 mins by fluorescence assay
[17] = molecular target: Serine/threonine-protein kinase ULK3 (Homo sapiens) (UniProt Q6PHR2); assay: Inhibition of recombinant full-length human ULK3 assessed as residual activity at 10 uM using casein as substrate measured after 40 mins in presence of [gamma33P]ATP by scintillation counting method
[18] = molecular target: AP2-associated protein kinase 1 (Homo sapiens) (UniProt Q2M2I8); assay: Inhibition of human AAK1 assessed as residual activity at 10 uM using peptide substrate measured after 120 mins in presence of [gamma33P]ATP by scintillation counting method
[19] = molecular target: Serine/threonine-protein kinase SIK2 (Homo sapiens) (UniProt Q9H0K1); assay: Inhibition of human SIK2 (1 to 276 residues) using KKKVSRSGLYRSPSMPENLNRPR as substrate measured after 40 mins in presence of [gamma33P]ATP by scintillation counting method; set-up: scale not given: the % may be the effect or the level left
[20] = molecular target: Cytoplasmic tyrosine-protein kinase BMX (Homo sapiens) (UniProt P51813); assay: Inhibition of full-length recombinant human BMX assessed as residual activity at 10 uM using poly(Glu, Tyr) 4:1 as substrate measured after 40 mins in presence of [gamma33P]ATP by scintillation counting method
[21] = molecular target: Cyclin-dependent kinase-like 1 (Homo sapiens) (UniProt Q00532); assay: Inhibition of recombinant human CDKL1 (1 to 303 residues) assessed as residual activity at 10 uM using RRRFRPASPLRGP as substrate measured after 120 mins in presence of [gamma33P]ATP by scintillation counting method
Cyclin-dependent kinase-like 1 (Homo sapiens), sequence (Q00532 whole entry, the tested form may be a part): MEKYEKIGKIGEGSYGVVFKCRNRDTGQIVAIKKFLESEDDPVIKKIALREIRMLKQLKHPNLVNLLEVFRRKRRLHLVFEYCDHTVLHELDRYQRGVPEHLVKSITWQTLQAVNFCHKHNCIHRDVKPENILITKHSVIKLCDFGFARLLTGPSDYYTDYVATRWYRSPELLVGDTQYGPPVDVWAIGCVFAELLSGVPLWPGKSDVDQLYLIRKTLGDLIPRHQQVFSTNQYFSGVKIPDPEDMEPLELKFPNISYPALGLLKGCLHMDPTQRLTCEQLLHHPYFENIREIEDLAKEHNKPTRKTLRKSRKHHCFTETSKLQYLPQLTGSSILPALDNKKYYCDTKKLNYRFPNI

[22] = molecular target: Serine/threonine-protein kinase D2 (Homo sapiens) (UniProt Q9BZL6); assay: Inhibition of recombinant full-length human PKD2 assessed as residual activity at 10 uM using KKLNRTLSVA as substrate measured after 40 mins in presence of [gamma33P]ATP by scintillation counting method
Serine/threonine-protein kinase D2 (Homo sapiens), sequence (Q9BZL6 whole entry): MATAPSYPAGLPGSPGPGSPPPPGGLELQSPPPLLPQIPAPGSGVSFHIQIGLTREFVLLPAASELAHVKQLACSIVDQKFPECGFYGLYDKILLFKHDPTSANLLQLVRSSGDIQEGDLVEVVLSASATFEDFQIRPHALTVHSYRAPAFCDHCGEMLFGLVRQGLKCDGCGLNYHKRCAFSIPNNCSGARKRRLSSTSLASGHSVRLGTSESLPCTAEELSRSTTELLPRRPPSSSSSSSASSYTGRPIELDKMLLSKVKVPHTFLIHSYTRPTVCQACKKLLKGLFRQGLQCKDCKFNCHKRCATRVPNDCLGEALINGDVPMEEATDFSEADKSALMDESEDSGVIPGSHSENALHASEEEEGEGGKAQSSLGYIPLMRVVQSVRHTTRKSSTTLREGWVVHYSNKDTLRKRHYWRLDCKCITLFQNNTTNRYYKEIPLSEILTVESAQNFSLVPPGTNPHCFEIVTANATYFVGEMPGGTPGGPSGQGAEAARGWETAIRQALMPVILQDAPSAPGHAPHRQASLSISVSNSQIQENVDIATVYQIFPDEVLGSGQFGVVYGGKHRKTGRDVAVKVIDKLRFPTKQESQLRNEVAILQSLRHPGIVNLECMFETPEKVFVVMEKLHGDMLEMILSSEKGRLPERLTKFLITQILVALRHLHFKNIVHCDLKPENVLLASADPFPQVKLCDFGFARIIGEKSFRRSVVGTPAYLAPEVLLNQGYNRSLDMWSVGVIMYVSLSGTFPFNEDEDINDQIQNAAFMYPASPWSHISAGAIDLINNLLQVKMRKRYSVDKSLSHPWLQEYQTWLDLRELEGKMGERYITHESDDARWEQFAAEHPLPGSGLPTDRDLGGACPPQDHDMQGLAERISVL

CT26 = assay: Antiproliferative activity against mouse CT26 cells assessed as reduction in cell viability after 72 hrs by MTT assay; assay type: functional, cell-based; conditions: CT26, 72 h
[23] = molecular target: Ephrin type-A receptor 4 (Homo sapiens) (UniProt P54764); assay: Inhibition of recombinant human EphA4 (601 to 892 residues) assessed as residual activity at 10 uM using poly(Glu, Tyr) 4:1 as substrate measured after 40 mins in presence of [gamma33P]ATP by scintillation counting method
Ephrin type-A receptor 4 (Homo sapiens), sequence (P54764 whole entry, the tested form may be a part): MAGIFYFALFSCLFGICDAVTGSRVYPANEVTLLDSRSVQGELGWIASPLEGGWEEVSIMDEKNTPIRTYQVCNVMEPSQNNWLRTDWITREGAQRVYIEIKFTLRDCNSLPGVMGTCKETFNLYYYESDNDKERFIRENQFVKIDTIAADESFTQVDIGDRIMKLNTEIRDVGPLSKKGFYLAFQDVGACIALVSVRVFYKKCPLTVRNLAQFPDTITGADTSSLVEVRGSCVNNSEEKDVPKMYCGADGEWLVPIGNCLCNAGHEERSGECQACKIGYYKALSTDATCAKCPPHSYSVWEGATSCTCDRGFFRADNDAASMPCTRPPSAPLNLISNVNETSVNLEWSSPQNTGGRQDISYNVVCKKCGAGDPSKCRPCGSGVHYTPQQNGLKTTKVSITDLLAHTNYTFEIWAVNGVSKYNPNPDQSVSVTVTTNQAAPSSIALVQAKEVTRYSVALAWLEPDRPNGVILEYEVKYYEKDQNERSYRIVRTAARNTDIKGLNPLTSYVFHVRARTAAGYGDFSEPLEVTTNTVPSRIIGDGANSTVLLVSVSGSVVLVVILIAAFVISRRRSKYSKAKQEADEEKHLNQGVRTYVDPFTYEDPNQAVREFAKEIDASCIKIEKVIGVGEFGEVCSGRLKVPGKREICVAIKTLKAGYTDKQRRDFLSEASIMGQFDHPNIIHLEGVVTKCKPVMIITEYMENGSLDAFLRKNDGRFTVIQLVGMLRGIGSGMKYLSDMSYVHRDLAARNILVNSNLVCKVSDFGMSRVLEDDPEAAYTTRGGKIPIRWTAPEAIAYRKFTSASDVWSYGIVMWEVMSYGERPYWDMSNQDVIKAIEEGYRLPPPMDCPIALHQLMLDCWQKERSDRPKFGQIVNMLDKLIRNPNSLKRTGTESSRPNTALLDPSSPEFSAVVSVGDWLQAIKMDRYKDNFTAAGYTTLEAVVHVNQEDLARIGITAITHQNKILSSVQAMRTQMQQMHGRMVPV

Compound: Cc1cc(C)c(CNc2nc(Cl)nc3c2ncn3C2CCCC2)c(=O)[nH]1
- Activity [1]: 118%
- Activity [2]: 116%
- Activity [3]: 110%
- Activity [4]: 103%
- Activity [5]: 96.5%
- Activity [6]: 110%
- Activity [7]: 98.5%
- Activity [8]: 101%
- Activity [9]: 119%
- Activity [10]: 100%
- Activity [11]: 126%
- Activity [12]: 92%
- Activity [13]: 124%
- Activity [14]: 102%
- Activity [15]: 98%
- Activity [16]: 122%
- Activity (Homo sapiens): 109%
- Activity [17]: 102%
- Activity [18]: 105%
- Activity [19]: 97%
- Activity [20]: 132%
- Activity [21]: 122%
- Activity [22]: 120%
- IC50 (CT26): 45.5 nM
- Activity [23]: 100%
